Patent publication EP4620956A1, “PARP1 INHIBITORS” (Zhejiang Yangli Pharmaceutical Technology Co., Ltd., priority 2022, dated 2024)

Experiments:
PARP2 = biological target: T1, PARP2 (Homo sapiens, UniProt Q9UGN5); experiment: PARP2-DNA trapping, fluorescence polarization (FP); assay type: biochemical
T1 construct: purchased BPS 80502

MDA-MB-436 = experiment: Anti-proliferative activity (CellTiter-Glo, 7 days), MDA-MB-436; assay type: cell-based, human; details: Homo sapiens, MDA-MB-436, 168 h, read-out: MDA-MB-436 IC50
MDA-MB-231 = experiment: Anti-proliferative activity (CellTiter-Glo, 7 days), MDA-MB-231; assay type: cell-based, human; details: Homo sapiens, MDA-MB-231, 168 h, read-out: MDA-MB-231 IC50
PARP3 = biological target: T2, PARP3 (Homo sapiens, UniProt Q9Y6F1); experiment: Inhibition of PARP3 enzyme activity (chemiluminescence); assay type: biochemical; details: ratio relative to the PARP1 enzyme activity
T2 construct: purchased BPS 80503
T2 sequence (Q9Y6F1 1-533): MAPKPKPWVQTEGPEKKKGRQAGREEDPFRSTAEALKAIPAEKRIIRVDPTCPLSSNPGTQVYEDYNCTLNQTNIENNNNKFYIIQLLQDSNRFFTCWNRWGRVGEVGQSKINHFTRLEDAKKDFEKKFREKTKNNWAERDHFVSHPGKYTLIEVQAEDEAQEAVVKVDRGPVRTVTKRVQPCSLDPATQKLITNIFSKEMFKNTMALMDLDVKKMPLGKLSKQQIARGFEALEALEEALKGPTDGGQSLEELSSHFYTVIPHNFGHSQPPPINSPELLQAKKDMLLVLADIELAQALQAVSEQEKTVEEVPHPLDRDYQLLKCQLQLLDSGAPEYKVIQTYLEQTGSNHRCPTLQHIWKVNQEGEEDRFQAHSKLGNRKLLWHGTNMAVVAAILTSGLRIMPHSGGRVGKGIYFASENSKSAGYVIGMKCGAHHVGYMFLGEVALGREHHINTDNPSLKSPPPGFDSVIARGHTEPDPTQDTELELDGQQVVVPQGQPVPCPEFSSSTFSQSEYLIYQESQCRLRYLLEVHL

T1 sequence (Q9UGN5 whole entry): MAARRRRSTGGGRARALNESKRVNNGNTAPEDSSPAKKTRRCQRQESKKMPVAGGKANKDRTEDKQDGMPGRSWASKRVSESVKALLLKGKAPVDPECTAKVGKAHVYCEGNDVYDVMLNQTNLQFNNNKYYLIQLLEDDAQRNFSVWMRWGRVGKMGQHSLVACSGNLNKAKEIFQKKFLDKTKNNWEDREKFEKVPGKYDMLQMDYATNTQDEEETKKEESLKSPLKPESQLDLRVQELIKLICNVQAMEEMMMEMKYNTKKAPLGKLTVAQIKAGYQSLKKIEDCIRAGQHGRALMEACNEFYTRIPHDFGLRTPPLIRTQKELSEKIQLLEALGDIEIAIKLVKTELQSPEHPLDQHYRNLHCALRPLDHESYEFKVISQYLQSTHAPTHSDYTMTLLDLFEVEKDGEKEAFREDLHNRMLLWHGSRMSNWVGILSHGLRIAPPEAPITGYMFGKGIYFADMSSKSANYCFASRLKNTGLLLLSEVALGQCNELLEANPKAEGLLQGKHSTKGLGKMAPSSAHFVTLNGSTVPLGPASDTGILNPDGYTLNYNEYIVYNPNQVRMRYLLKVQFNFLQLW

Bottom (PARP2; PARP2, 0.25 hour): -5.4
Hillslope (PARP2; PARP2, 0.25 hour): 1.2
Top (PARP2; PARP2, 0.25 hour): 107.8
Bottom (PARP2; PARP2, 0.5 hour): -2.7
Hillslope (PARP2; PARP2, 0.5 hour): 1.4
Top (PARP2; PARP2, 0.5 hour): 109.9
Bottom (PARP2; PARP2, 1 hour): 2.8
Hillslope (PARP2; PARP2, 1 hour): 2.0
Top (PARP2; PARP2, 1 hour): 109.4
Bottom (PARP2; PARP2, 2 hour): -2.0
Hillslope (PARP2; PARP2, 2 hour): 2.2
Top (PARP2; PARP2, 2 hour): 107.9
Bottom (PARP2; PARP2, 4 hour): -1.4
Hillslope (PARP2; PARP2, 4 hour): 1.9
Top (PARP2; PARP2, 4 hour): 107.2
Bottom (PARP2; PARP2, 8 hour): 1.8
Hillslope (PARP2; PARP2, 8 hour): 2.1
Top (PARP2; PARP2, 8 hour): 106.5
Bottom (PARP2; PARP2, 24 hour): 0.3
Hillslope (PARP2; PARP2, 24 hour): 2.0
Top (PARP2; PARP2, 24 hour): 109.8
Bottom (PARP2; PARP2, 48 hour): -1.6
Hillslope (PARP2; PARP2, 48 hour): 1.8
Top (PARP2; PARP2, 48 hour): 110.6
IC50 (MDA-MB-436): 0.298 µM
IC50 (MDA-MB-231): 9.52 µM
PARP3 multiple vs PARP1 (PARP3): 47
Structure (SMILES): O=C(c1cc(Cc2n[nH]c(=O)c3ccccc23)ccc1F)N1CCN(C(=O)C2CC2)CC1 [Olaparib, olaparib]
